Columns and labels:
[1] = system: C. glabrata; conditions: cited from earlier work
[2] = system: C. glabrata; experiment: FITC-Hst-5 localization in C. glabrata by fluorescence microscopy; type: cell-based, Candida glabrata; conditions: 50 µM FITC-Hst-5, 30 minutes, 30°C, fixed exposure time 9 ms
Protocol: (§1) The intracellular localization of FITC-Hst-5 (5, 10, 20, and 50 µM) and FITC-m68 (5, 10, 20, 50, and 200 µM) was investigated either alone or in a double-labeling experiment using FM4-64 (Molecular Probes, Inc. Eugene, OR). Yeast cells in 50 µl (∼10^6 cells/ml) were incubated for 30 minutes at 30°C with 10 µM FITC-Hst-5 and 10 µM FM4-64; the cells were then washed twice with 10 mM NaN3 and 10 mM NaF in 20 mM PBS buffer, and analyzed immediately by wide-field fluorescence microscopy.
(§2) Wide-field fluorescence images were obtained on either Zeiss Axioplan 2 or the inverted Zeiss Axio Observer.Z1 Microscope (Carl Zeiss MicroImaging, Inc. Thornwood, NY) fluorescent system, equipped with the AttoArc HBO 100 and the X-Cite series 120 mercury lamps, respectively. Images were taken using a 100× NA 1.4 objective. Both fluorescence microscopes were equipped with GFP, RFP, and DAPI filter sets.

[3] = system: C. albicans wild-type cells; experiment: Hst-5 localization in cells treated with latrunculin A or cytochalasin A; type: cell-based, Candida albicans; conditions: cells pre-treated with 50 µM latrunculin A or 5 µM cytochalasin A for 60 minutes at room temperature, then 5 µM FITC-Hst-5, 30 minutes, 30°C
Protocol: (§3) To depolarize F-actin, cells were treated with either 5 µM cytochalasin A or 50 µM latrunculin A (Sigma, St. Louis, MO) for 1 hour at room temperature. The control cells (wild-type and myo5) were treated with the equivalent volume of the DMSO solvent (0.5%). The cells were then exposed to 5 µM of FITC-Hst-5 for 30 minutes at 30°C. The cells were then washed twice with buffer containing NaN3 and NaF and analyzed by wide-field fluorescence microscopy and flow cytometry.

[4] = liposome model system; cited from earlier work
Protocol: Histatins are a family of low-molecular weight histidine-rich cationic peptides that are found specifically in human salivary secretions. […] It kills C. albicans in vitro at physiological concentrations (15–30 µM),[4]. Structural studies of Hst-5 have shown that it takes on a random coil structure in aqueous solvents and adopts a largely α-helical conformation in non-aqueous solutions [5],[6]. Many antimicrobial cationic peptides form either α ...

[5] = system: C. albicans; design: method as in 4 sources, one per row (each row's own in cited_ref): ref 3, 4 = [3]; PMID 2406266; 3 Raj PA Edgerton M Levine MJ 1990 Salivary histatin 5: dependence of sequence, chain length, and helical conformation for candidacidal activity. J Biol Chem 265 3898 3905 2406266 || [4]; PMID 1855975; doi:10.1128/iai.59.8.2549-2554.1991; 4 Xu T Levitz SM Diamond RD Oppenheim FG 1991 Anticandidal activity of major human salivary histatins. Infect Immun 59 2549 2554 1855975 10.1128/iai.59.8.2549-2554.1991 PMC258054 ||| ref 37 = [37]; PMID 8945538; doi:10.1128/iai.64.12.5000-5007.1996; 37 Tsai H Raj PA Bobek LA 1996 Candidacidal activity of recombinant human salivary histatin-5 and variants. Infect Immun 64 5000 5007 8945538 10.1128/iai.64.12.5000-5007.1996 PMC174480 ||| ref 10, 13, 49 = [10]; PMID 10066791; doi:10.1074/jbc.274.11.7286; 10 Helmerhorst EJ Breeuwer P van't Hoff W Walgreen-Weterings E Oomen LC 1999 The cellular target of histatin 5 on Candida albicans is the energized mitochondrion. J Biol Chem 274 7286 7291 10066791 10 || [13]; PMID 10471575; doi:10.1128/aac.43.9.2256; 13 Xu Y Ambudkar I Yamagishi H Swaim W Walsh TJ 1999 Histatin 3-mediated killing of Candida albicans : effect of extracellular salt concentration on binding and internalization. Antimicrob Agents Chem || [49]; PMID 11083804; doi:10.1128/iai.68.12.6848-6856.2000; 49 Koshlukova SE Araujo MW Baev D Edgerton M 2000 Released ATP is an extracellular cytotoxic mediator in salivary histatin 5-induced killing of Candida albicans . Infect Immun 68 6848 6856 11083804 10 ||| ref 65, 66 = [65]; PMID 11204768; doi:10.1023/a:1026572128004; 65 van't Hoff W Reijnders I Helmerhorst E Walgreen-Weterings E Simoons-Smit I 2000 Synergistic effects of low doses of histatin 5 and its analogues on amphotericin B anti-mycotic activity. Antonie Van || [66]; PMID 16291868; doi:10.1093/jac/dki402; 66 Tanida T Okamoto T Ueta E Yamamoto T Osaki T 2006 Antimicrobial peptides enhance the candidacidal activity of antifungal drugs by promoting the efflux of ATP from Candida cells. J Antimicrob Chemot; conditions: cited from earlier work
[6] = system: C. albicans cells; type: cell-based, Candida albicans; conditions: 10 µM FITC-Hst-5, 30 minutes, 30°C, cell sorting, ~200 cells plated on YPD, overnight 30°C, triplicate cultures
Protocol: C. albicans cells were incubated for 30 minutes with 10 µM of FITC-Hst-5 at 30°C. The cells were then washed twice with 20 mM PBS buffer and under went flow cytometric cell sorting using the DAKO Cytomation MoFlo Flow Cytometer (DAKO, Glostrup, Denmark). The results were analyzed on a PC using the software package Summit (version 4.0) provided by DAKO. The cells were sorted by gating the two peaks of the histogram representing vacuolar and cytoplasmic localization of Hst-5. Cellular localization of Hst-5 was confirmed with fluorescence microscopy. The sorted cells were then plated onto YPD plates and incubated overnight at 30°C (data as a mean±1SD of triplicate cultures).

[7] = system: S. cerevisiae; conditions: cited from earlier work
[8] = system: C. albicans vps36 and snf7 mutant cells; experiment: Hst-5 localization in vps36 and snf7 mutant cells by fluorescence microscopy; type: cell-based, Candida albicans; conditions: 10 µM FITC-Hst-5 and 10 µM FM4-64, 30 minutes, 30°C
Protocol: as §1, §2

[9] = system: S. cerevisiae; experiment: FITC-Hst-5 localization in S. cerevisiae by fluorescence microscopy; type: cell-based, Saccharomyces cerevisiae; conditions: 50 µM FITC-Hst-5, 30 minutes, 30°C, fixed exposure time 9 ms
Protocol: as §1, §2

[10] = system: C. albicans cells; experiment: Hst-5 localization studies by fluorescence microscopy; type: cell-based, Candida albicans
Protocol: as §1, §2

[11] = system: C. albicans cells; experiment: Concentration-dependent localization of FITC-Hst-5 by flow cytometry (FACS analysis); type: cell-based, Candida albicans; conditions: 30°C, ~10^6 cells/ml; for Percent of population: M2 (Hst-5 localized to the cytoplasm): high intensity peak; for Percent of population: M1 (Hst-5 localized to the vacuole): low intensity peak
Protocol: as §1
(§4) The distribution of FITC-labeled Hst-5 over the cell population was investigated by using a dual laser fluorescence-activated cell sorter (BD FACSCalibur System, Becton Dickinson, San Jose, CA). The results were analyzed with the software package CellQuest Pro (version 5.1.1) provided by Beckton Dickinson.

[12] = system: C. albicans myo5 cells; experiment: FITC-Hst-5 localization in myo5 mutant cells by flow cytometry; type: cell-based, Candida albicans; conditions: 10 µM FITC-Hst-5 and 10 µM FM4-64, 10 minutes, 30°C
Protocol: The intracellular localization of FITC-Hst-5 (5, 10, 20, and 50 µM) and FITC-m68 (5, 10, 20, 50, and 200 µM) was investigated either alone or in a double-labeling experiment using FM4-64 (Molecular Probes, Inc. Eugene, OR). […]
as §3, §4

[13] = 50 and 200 µM FITC-m68, 30°C, 30 minutes

Compound: C[C@H](NC(=O)[C@H](Cc1cnc[nH]1)NC(=O)[C@H](CO)NC(=O)[C@@H](N)CC(=O)O)C(=O)N[C@@H](CCCCN)C(=O)N[C@@H](CCCNC(=N)N)C(=O)N[C@@H](Cc1cnc[nH]1)C(=O)N[C@@H](Cc1cnc[nH]1)C(=O)NCC(=O)N[C@@H](Cc1ccc(O)cc1)C(=O)N[C@@H](CCCCN)C(=O)N[C@@H](CCCNC(=N)N)C(=O)N[C@@H](CCCCN)C(=O)N[C@@H](Cc1ccccc1)C(=O)N[C@@H](Cc1cnc[nH]1)C(=O)N[C@@H](CCC(=O)O)C(=O)N[C@@H](CCCCN)C(=O)N[C@@H](Cc1cnc[nH]1)C(=O)N[C@@H](Cc1cnc[nH]1)C(=O)N[C@@H](CO)C(=O)N[C@@H](Cc1cnc[nH]1)C(=O)N[C@@H](CCCNC(=N)N)C(=O)NCC(=O)N[C@@H](Cc1ccc(O)cc1)C(=O)O [Hst-5, histatin-5]
- resistance of the yeast to the peptide [1]: marked resistance
- cellular localization [2]: predominantly localized to the vacuole
- cellular localization [3]: observed in the cytoplasm in a majority of the cells
- lytic effect [4]: little lytic effect
- killing of C. albicans in combination ([5]; combined with amphotericin B): strong synergistic killing
- concentration that kills C. albicans in vitro (physiological concentrations) ([5]; in vitro): 15–30 µM
- colony formation of sorted cells with cytoplasmic Hst-5 [6]: none
- resistance of the yeast to the peptide [7]: marked resistance
- cellular localization [8]: excluded from the lumen of vacuole-like membrane structures
- cellular localization [9]: found bound to the cell surface
- cellular localization ([10]; 5 µM FITC-Hst-5, 30 minutes, fluorescence microscopy): mostly vacuolar localization
- cellular localization ([10]; 20 µM FITC-Hst-5, pH 4.5, 30 minutes, 30°C): a preponderance of cells had Hst-5 localized within the cytoplasm
- cellular localization ([10]; 20 µM FITC-Hst-5, pH 9.0, 30 minutes, 30°C): no cytoplasmic localization was observed
- cellular localization ([10]; 50 µM FITC-Hst-5, 30 minutes, fluorescence microscopy): largely cytoplasmic localization with little vacuolar fluorescence

Compound: DSHAKRHHGYKREFHEKHHSHGGY [FITC-m68, FITC-labeled Hst-5 m68]
- cytoplasmic localization ([10]; 5, 10 and 20 µM FITC-m68, 30°C, 30 minutes (data not shown)): not observed
- cellular localization [10, 13]: localized to the vacuole in the majority of cells
- cytoplasmic localization [10, 13]: only seen in a small portion of the cell population

Compound: DSHAKRHHGYKREFHEKHHSHGGY [m68, variant of Hst-5 reported by Tsai et al.: lysine-13 replaced with glutamic acid and arginine 22 with glycine, reference compound]
- killing ability relative to Hst-5 [5]: significant reduction

Compound: DSHAKRHHGYKRKFHEKHHSHRGY [FITC-Hst-5, FITC-labeled Hst-5]
- Percent of population: M2 (Hst-5 localized to the cytoplasm) ([11]; 5 µM FITC-Hst-5, 30 minutes): 1.94%
- Percent of population: M1 (Hst-5 localized to the vacuole) ([11]; 5 µM FITC-Hst-5, 30 minutes): 96.02%
- Percent of population: M2 (Hst-5 localized to the cytoplasm) ([11]; 10 µM FITC-Hst-5, 30 minutes): 34.63%
- Percent of population: M1 (Hst-5 localized to the vacuole) ([11]; 10 µM FITC-Hst-5, 30 minutes): 64.02%
- Percent of population: M2 (Hst-5 localized to the cytoplasm) ([11]; 20 µM FITC-Hst-5, 30 minutes): 70.43%
- Percent of population: M1 (Hst-5 localized to the vacuole) ([11]; 20 µM FITC-Hst-5, 30 minutes): 29.69%
- Percent of population: M2 (Hst-5 localized to the cytoplasm) ([11]; 50 µM FITC-Hst-5, 30 minutes): 93.44%
- Percent of population: M1 (Hst-5 localized to the vacuole) ([11]; 50 µM FITC-Hst-5, 30 minutes): 6.50%
- population with cytoplasmic localization [12]: 19.01%
- population with plasma membrane localization [12]: 80.99%

— paper PMC2568956, “The Antimicrobial Peptide Histatin-5 Causes a Spatially Restricted Disruption on the Candida albicans Surface, Allowing Rapid Entry of the Peptide into the Cytoplasm” (PLoS Pathogens, 2008)
